Laboratory results from the supplement of paper PMC4862054.

Tests used:
Settings in all cases: incubation time: 72 h
[1] = tested on: BT-549; experiment: normalised response (% of control), CellTox Green; higher = less cell death (100 = DMSO, 0 = benzethonium chloride kill control)
Method in brief: (§1)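 Two readouts were taken after 72 h: CellTox Green fluorescence (485/520 nm) first, then CellTiter-Glo luminescence after 10 min at room temperature. Breast cancer cell lines had been seeded as 20 µl suspension into 384-well plates holding compound at 5 concentrations in 10-fold steps across a compound-specific 10,000-fold range. Each value is a normalised signal at a single concentration, with plates scaled to 0.1 % DMSO (100) and a positive kill control (0).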

[2] = tested on: MDA-MB-468; experiment: as above
Method in brief: as §1

[3] = tested on: CAL-148; experiment: as above
Method in brief: as §1

[4] = tested on: CAL-51; experiment: as above
Method in brief: as §1

[5] = tested on: CAL-120; experiment: as above
Method in brief: as §1

[6] = tested on: MCF-10A; experiment: as above
Method in brief: as §1

[7] = tested on: MDA-MB-231; experiment: as above
Method in brief: as §1

[8] = tested on: Hs578T; experiment: as above
Method in brief: as §1

[9] = tested on: HCC1937; experiment: as above
Method in brief: as §1

[10] = tested on: MDA-MB-436; experiment: as above
Method in brief: as §1

[11] = tested on: CAL-85-1; experiment: as above
Method in brief: as §1

[12] = tested on: BT-474; experiment: as above
Method in brief: as §1

[13] = tested on: MDA-MB-453; experiment: as above
Method in brief: as §1

[14] = tested on: HDQ-P1; experiment: as above
Method in brief: as §1

[15] = tested on: MFM-223; experiment: as above
Method in brief: as §1

[16] = tested on: DU-4475; experiment: as above
Method in brief: as §1

[17] = tested on: HCC1599; experiment: as above
Method in brief: as §1

[18] = tested on: HCC1143; experiment: as above
Method in brief: as §1

[19] = tested on: BT-549; experiment: normalised response (% of control), CellTiter-Glo; higher = more viable cells (100 = DMSO, 0 = benzethonium chloride kill control)
Experimental: (§2)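 DSRT, 72 h incubation, CellTox Green / CellTiter-Glo readout. Signal is normalised to DMSO and benzethonium chloride controls. Value is the normalised response at the highest dose.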

[20] = tested on: MDA-MB-468; experiment: as above
Experimental: as §2

[21] = tested on: CAL-148; experiment: as above
Experimental: as §2

[22] = tested on: CAL-51; experiment: as above
Experimental: as §2

[23] = tested on: CAL-120; experiment: as above
Experimental: as §2

[24] = tested on: MCF-10A; experiment: as above
Experimental: as §2

[25] = tested on: MDA-MB-231; experiment: as above
Experimental: as §2

[26] = tested on: Hs578T; experiment: as above
Experimental: as §2

[27] = tested on: HCC1937; experiment: as above
Experimental: as §2

[28] = tested on: MDA-MB-436; experiment: as above
Experimental: as §2

[29] = tested on: CAL-85-1; experiment: as above
Experimental: as §2

[30] = tested on: BT-474; experiment: as above
Experimental: as §2

[31] = tested on: MDA-MB-453; experiment: as above
Experimental: as §2

[32] = tested on: HDQ-P1; experiment: as above
Experimental: as §2

[33] = tested on: MFM-223; experiment: as above
Experimental: as §2

[34] = tested on: DU-4475; experiment: as above
Experimental: as §2

[35] = tested on: SK-BR-3; experiment: as above
Experimental: as §2

[36] = tested on: HCC1599; experiment: as above
Experimental: as §2

[37] = tested on: HCC1143; experiment: as above
Experimental: as §2

Structure (SMILES)	normalised response [1] [%]	normalised response [2] [%]	normalised response [3] [%]	normalised response [4] [%]	normalised response [5] [%]	normalised response [6] [%]	normalised response [7] [%]	normalised response [8] [%]	normalised response [9] [%]	normalised response [10] [%]	normalised response [11] [%]	normalised response [12] [%]	normalised response [13] [%]	normalised response [14] [%]	normalised response [15] [%]	normalised response [16] [%]	normalised response [17] [%]	normalised response [18] [%]	normalised response [19] [%]	normalised response [20] [%]	normalised response [21] [%]	normalised response [22] [%]	normalised response [23] [%]	normalised response [24] [%]	normalised response [25] [%]	normalised response [26] [%]	normalised response [27] [%]	normalised response [28] [%]	normalised response [29] [%]	normalised response [30] [%]	normalised response [31] [%]	normalised response [32] [%]	normalised response [33] [%]	normalised response [34] [%]	normalised response [35] [%]	normalised response [36] [%]	normalised response [37] [%]
CC1(C)CCC(CN2CCN(c3ccc(C(=O)NS(=O)(=O)c4ccc(NCC5CCOCC5)c([N+](=O)[O-])c4)c(Oc4cnc5[nH]ccc5c4)c3)CC2)=C(c2ccc(Cl)cc2)C1 [ABT-199] (10000 nM)	84.9	118	98.2	101	88.4	108	-19	102	-11.4	95.9	114	101	97.7	98.2	86.4	97.9	105	103	91.4	85.9	105	119	98.5	116	66.3	90.5	73.2	102	97.8	70.2	92.9	90.8	91	86.2	90	66.4	93.7
CC(=O)N(O)CCCCCNC(=O)CCC(=O)N(O)CCCCCNC(=O)CCC(=O)N(O)CCCCCN [Deferoxamine] (10000 nM)	81.3	150	37.6	48	103	105	98.7	113	90.9	98.2	128	82.7	102	104	101	81.2	92.8	79.9	54.5	37.7	26.6	37.9	87.2	57.5	71.8	62	64.1	48.8	78.8	76	89.6	64.6	70.9	18.3	40.5	45.9	65
Cc1ccc([N+](=O)[O-])cc1S(=O)(=O)N(C)/N=C/c1cnc2ccc(Br)cn12 [PIK-75] (10000 nM)	-7.34	31.6	65.1	-5.71	81.7	-39.7	-38.5	-10.9	24.7	76	50.7	7.46	51.3	66.3	18.6	74.7	72.6	54.4	1.57	2.17	37.5	5.22	26.6	-0.11	1.78	0.96	6.99	15	7.97	8.5	0.48	17.4	3.73	1.22	0.21	8.43	12.6
CC(=O)c1c(C)c2cnc(Nc3ccc(N4CCNCC4)cn3)nc2n(C2CCCC2)c1=O [Palbociclib] (10000 nM)	106	193		94.1	102	74.4	121	135	89	68.1	103	96	61.4	50.1	90.1	97	99.4	101	79.3	68.2	80.4	55	77.7	65.8	84.3	86.9	93.2	74.4	70.4	69.7	92.7	86.3	65.9	86.9	52.9	86.5	76.5
COc1cc(F)c(F)c(Nc2ccc(I)cc2F)c1NS(=O)(=O)C1(C[C@H](O)CO)CC1 [Refametinib] (10000 nM)	101	-53.7	75.8	101	92	65.8	64.1	97.8	88.4	95.6	-0.94	99.6	102	82.1	97.9	69.6	107	106	65.7	45.2	65.8	92.5	55.7	25	43.7	55.1	58.5	54.8	23.8	47.8	82.7	43.6	41	0.11	77.2	102	67.3
